From patent US20240050392A1, “COMPOSITIONS AND METHODS FOR IMPROVED TREATMENT OF PLATINUM-BASED CHEMOTHERAPEUTIC RESISTANT TUMORS” (THE REGENTS OF THE UNIVERSITY OF THE COLORADO, A BODY …, priority 2021, published 2024)

Assays:
Format in all cases: cell-based, human
KU1919-GemCis cells = test: Metabolomics of intracellular taurine; details: KU1919-GemCis cells with knockdown of NPEPPS, 10 μM cisplatin
Procedure: Given that VRACs transport cisplatin and carboplatin and finding NPEPPS in complex with VRAC subunits (FIGS. 4C-4D), NPEPPS may be a negative regulator of VRAC activity, consequently reducing import of intracellular cisplatin. Thus, the impact of NPEPPS on osmolytes known to be transported through VRACs was assessed.
Metabolomics. Sample preparation. Cell lines were cultured for several passages in IMDM+10% FBS (IMDM10). Prior to experiment, cells were cultured in IMDM10 to ˜80% confluence and then dissociated. For dissociation, cells were washed once with room temperature PBS and then incubated with PBS+0.05% Trypsin-EDTA for 10-15 minutes. Cells were neutralized with IMDM10 and then fully dissociated by gentle pipetting. After dissociation, cells were counted by Trypan blue staining and then replated at 1×10^6 cells. 24 hours after plating, cells were treated with either IMDM10 or IMDM10+10 μM cisplatin. Day 0 cell cultures were immediately processed for metabolomics analysis. […] Cells were suspended in PBS, centrifuged a second time, and then resuspended in PBS and counted. […]
Data generation and analysis. […] Supernatants were clarified by centrifugation (10 minutes, 18,000 g, 4° C.) and 10 μL analyzed using a Thermo Vanquish UHPLC coupled to a Thermo Q Exactive mass spectrometer. […]

TCCSUP cells = test: Intracellular cisplatin measurements using CyTOF in TCCSUP cells
Procedure: To validate the role of LRRC8D in cisplatin import, intracellular cisplatin was measured in the TCCSUP cells. […] In contrast to the KU1919, 5637, and T24 cells (FIGS. 12C-12E), NPEPPS knockdown had very little effect on the GemCis-resistant cells (median Pt 195=28) (FIGS. 12I-12J) given that the TCCSUP-GemCis cells have a focal deletion of LRRC8D (FIGS. 9A-9B). However, when LRRC8D was overexpressed, cisplatin import was restored to the levels of the parental cell line (FIG. 12K).
shRNA-mediated knockdown experiments. Lentiviral production and transduction were carried out as follows. In brief, plasmids from the RNAi Consortium (TRC) collection (TRC construct numbers TRCN0000073838, TRCN0000073839 and TRCN0000073840) were used for targeting NPEPPS were selected based on predicted knockdown efficiency; non-targeting controls used were SHC002 and SHC016. 2 μg of target shRNA construct and 2 μg of 3:1 ratio of psPAX2 (Addgene) and pMD2.G (Addgene) were transfected into HEK293FT cells using 2 μg of Polyethylenimine (Polysciences). Lentiviral particles containing media was filtered using 0.45 μm cellulose acetate syringe filter and used for transduction. Puromycin selection was performed at doses used for CRISPR library screening or in some cases, cells were re-selected with higher doses of puromycin (10 μg/mL), in order to ensure complete elimination of non-transduced cells. Selected cells were frozen at early passage and early passage cells were used for all experiments.
Intracellular cisplatin measurements using CyTOF. Cell lines were cultured for several passages in IMDM+10% FBS. […] After dissociation, cells were counted by Trypan blue staining and then placed in separate tubes at 3×10^5 cells. […] Relative cisplatin intensity (defined by ^195Platinum isotopic mass intensity) was analyzed among nucleated ^191Iridium+^193Iridium+events defined by Boolean gating within FlowJo 10.7.1.

[1] = tested on: KU1919-GemCis and KU1919 parental cells; test: Drug dose response with NPEPPS knockdown or overexpression

N.N.[Cl][Pt][Cl] [cisplatin]
intracellular levels of taurine (KU1919-GemCis cells): reduced even further
intracellular cisplatin, median Pt 195 (TCCSUP cells; TCCSUP parental cells): 189
intracellular cisplatin, median Pt 195 (TCCSUP cells; TCCSUP-GemCis cells): 22
intracellular cisplatin, median Pt 195 (TCCSUP cells; TCCSUP-GemCis cells, NPEPPS knockdown): 28
effect of NPEPPS knockdown on drug response ([1]; KU1919-GemCis cells, stable NPEPPS shRNA knockdown): preferentially enhanced response
effect of NPEPPS overexpression on drug response ([1]; KU1919 parental lines overexpressing NPEPPS): increased treatment resistance
